In US6417235B2, “Method and use of α-amino-β-mercapto-ethane derivatives as dicarbonyl scavengers for treatment of conditions resulting from protein, lipid, and DNA damage” (University of Kentucky Research Foundation, priority 2000, dated 2002):

Tests used:
HaCat keratinocytes = assay: AGE-photosensitization of human skin cells, growth inhibition under solar simulated light; details: 10 mM
Experimental: Human HaCat keratinocytes growing on 35 mm dishes were exposed to solar simulated light (1.2 kJ/m^2 UVB and 23 kJ/m^2 UVA) in the presence or absence of AGE-BSA as a model of a protein with advanced glycation endproducts. Control populations were treated in exactly the same way as described above, but were not exposed to solar simulated light (SSL).

HaCat cells = assay: Protection of keratinocytes from alpha-dicarbonyl stress (cell count after 72 hour exposure); type: cell-based, human
Experimental: (§1) A continuous cell line of human epidermal keratinocytes (HaCat cells) and human dermal fibroblasts (CF-3 cells) were routinely cultured in 75 cm^2 flasks and split biweekly in DMEM containing 10% fetal bovine serum and kept in a humidified atmosphere containing 5% CO2 at 37° C. Human keratinocytes were split using 5% trypsin and human fibroblasts employed 1% trypsin. All experiments were carried out on 6 well dishes (Falcon USA), where keratinocytes were seeded at 2×10^4 cells/well and fibroblasts at 4×10^4 cells/well. Cells were left overnight to attach to the plate and the appropriate carbonyl scavenger was then added 15 minutes prior to the addition of the alpha-dicarbonyl stress compounds glyoxal or methylglyoxal. Following 72 hour exposure to the stress compound, cells were counted with a Coulter counter. the protective effects of the alpha-dicarbonyl scavengers were assessed by comparing the growth of untreated cells with cells exposed to alpha-carbonyl stress +/− test compound.

CF-3 cells = assay: Protection of fibroblasts from alpha-dicarbonyl stress (cell count after 72 hour exposure); type: cell-based, human
Experimental: as §1

[1] = Alpha-dicarbonyl trapping followed by HPLC
Experimental: Phenylglyoxal (10 mM) and D-penicillamine (20 mM) were reacted in 50 mM KH2PO4 buffer, pH 7.4 at room temperature. The progress of he reaction was monitored by HPLC analysis of reaction aliquots at 254 nm. After 40 minutes reaction time more than 90% conversion of the phenylglyoxal peak into a single product peak of higher retention time was observed. […] UV detection was at 254 nm. As shown by the HPLC analysis of the reaction system shown in FIG. 7, phenyglyoxal is fully reacted with D-penicillamine within 5 minutes. […] The reaction kinetics were studied at a phenylglyoxal concentration of […] and at 250 and 500 micromolar carbonyl scavenger concentration (D-penicillamine, aminoguanidine). Over the course of the reaction, aliquots were analyzed by HPLC. In the case of D-penicillamine, which required shorter sampling periods, reaction aliquots were taken every 20 seconds, and kept on dry ice until analysis. The initial reaction rates of phenylglyoxal with the test compounds were monitored by following the disappearance of phenylglyoxal over time. […] The measured first order rate constant (kst) was then used to calculate the second order rate constant (by applying the following equation: […]-carbonyl scavenger}. The calculated second order rate constants determined at the two reactant ratios were in good agreement.

histone H1 = assay: Histone H1 crosslinking by 12% SDS-PAGE with silver staining; type: biochemical, calf; details: 5 mM; histone H1, ADP-ribose reaction system
Experimental: The following screening scheme is used (see Table 1): AGE-fluorescence is determined at the beginning and after five days of incubation. Test compounds that are inherently fluorescent (designated false negatives) were identified by the initial fluorescence measurement (See Table 1, NADH for example). Since these are compounds of uncertain activity, they are diverted directly to the second stage of the screen. Aminoguanidine, a known glycation inhibitory agent, was used as a positive control for suppression of the increase on AGE-fluorescence. After five days incubation and plate reading, fluorescence quenchers (designated false positives) are excluded by measuring the quenching activity of the test compound by addition of AGE modified protein having known fluorescence activity to one microtiter plate well containing test compound in the complete reaction mixture. For this, AGE-BSA is used as the AGE-type fluorescence standard. This AGE-BSA test excludes false positives compounds that function by fluorescence quenching. If fluorescence quenching occurs the test compound is excluded from further screening. […] The protein is visualized by silver staining of the gel. […] A compound that passes the first and second stage of the screen is considered a glycation inhibitor and is further evaluated for biological activity as described below. […]

ΦX-174 DNA = assay: AGE-BSA photosensitized cleavage of ΦX-174 DNA under solar simulated light; type: biochemical; details: solar simulated light, AGE-BSA as photosensitizer
Experimental: Glycated Proteins as Photosensitizers of DNA Damage in Skin Photoaging. D-Penicillamine inhibits genotoxic consequences of AGE-photosensitization. Accumulation of AGEs on dermal elastin and collagen occurs during normal skin aging in humans. The hypothesis was tested that the intra- and extracellular accumulation of the complex yellow-brown AGE-chromophores contributes to skin aging and carcinogenesis induced by chronic exposure to sunlight. As a possible molecular mechanisms for a detrimental synergism of AGE-formation and exposure to sunlight, photosensitized DNA damage by AGEs was assessed in a simple in vitro system. Irradiation of covalently closed circular ΦX-174 DNA with increasing doses of solar simulated light (SSL) in the presence of AGE-BSA was used to detect photosensitized DNA nicking as a measure of DNA photodamage (panel A). […] Addition of several antioxidants modulated the photosensitization effect (panel C).

CC(C)(S)[C@@H](N)C(=O)O [D-Penicillamine]
toxic effects on HaCat cells (HaCat keratinocytes): no toxic effects | reversal of the photosensitization effect (HaCat keratinocytes; AGE-BSA with SSL): completely reversed the photosensitization effect | protection from alpha-dicarbonyl stress (HaCat cells; FIG. 14): protection | protection from methylglyoxal induced alpha-dicarbonyl stress (HaCat cells; FIG. 15): protection | protection from alpha-dicarbonyl stress (CF-3 cells; FIG. 14): protection | protection from methylglyoxal induced alpha-dicarbonyl stress (CF-3 cells; FIG. 15): protection | time until phenylglyoxal is fully reacted ([1]; HPLC analysis, FIG. 7): ≤ 5 min | conversion of the phenylglyoxal peak into a single product peak ([1]; phenylglyoxal 10 mM, D-penicillamine 20 mM, pH 7.4, room temperature, after 40 minutes): more than 90% | inhibition of histone H1 crosslinking (histone H1): inhibit histone H1 crosslinking | effect on AGE-BSA photosensitized DNA cleavage (ΦX-174 DNA): inhibited the photosensitization effect of AGE-BSA in a dose dependent relationship
